# Source: US20040265323A1, “Compositions comprising pathogen elicited epithelial chemoattractant (eicosanoid hepoxilin A3), inhibitors thereof and methods of use thereof” (priority 2003, published 2004)
# Entries after “also recorded” stand apart in the source; their conditions may differ.
# Assays:
# [1] = tested on: P. aeruginosa-induced PMN transepithelial migration, A549 cells; test: P. aeruginosa-induced PMN transepithelial migration across A549 cell monolayers; assay type: cell-based, human; settings: A549 monolayers, FIG. 5C
# Source text: It was further determined whether similar hepoxilin A3 recruitment of PMN by apically attached pathogens might occur at other mucosal surfaces. Pseudomonas aeruginosa is the most prominent bacterial spp. present during chronic infection in cystic fibrosis and chronic obstructive pulmonary disease patients and is accompanied by severe inflammation, including the emigration of PMN to the airway lumen (Pizurki et al., 2000; Jahn et al., 2000; Weiss, S. 1989). As a model for the airway epithelium the A549 cell line was used. This cell line is capable of forming a polarized barrier, and is widely employed as a model for the airway epithelial surface (Smart and Casale, 1994). […] Finally, the secretion of hepoxlin A3 in vitro was quantified using this A549 model system. For these experiments, A549 lung epithelial cells (ATTC) were grown in F12K media (Invitrogen) with 10% FBS, and maintained in culture similar to the T84 cell line. The wild type P. aeruginosa (PAO1) was used for infection of A549 after overnight aerobic growth (Luria broth) at 37° C.
# [2] = tested on: S. typhimurium-infected human intestinal xenografts; test: Histopathology of human intestinal xenografts infected with S. typhimurium; assay type: in vivo; settings: 1 μM in 100 μl intralumenally 2 hours prior to infection; xenografts in SCID mice; 15 hours after infection
# Protocol: (§1) Further, the effect of baicalein on S. typhimurium pathology in human intestinal xenografts was determined (Savidge et al., 1995) (FIG. 7). The human fetal intestinal xenograft model used in the present study has been previously described in detail (Savidge et al., 1995). Briefly, human fetal small intestine (n=3, gestational age 10-14weeks) was transplanted subcutaneously into C.B-17 severe-combined immunodeficient (SCID) mice. Xenografts were allowed to develop for a period between 10-20 weeks before use at which time the epithelium and underlying mucosa is fully differentiated (Savidge et al., 1995). Xenografts were infected with approximately 5×10^7 wild type S. typhimurium SL1344 in sterile HBSS(+) buffer in a 100 μl volume injected intralumenally by subcutaneous injection. Xenografts receiving the drug treatment were injected with 1 μM baicalein in a 100 μl volume 2 hours prior to infection with S. typhimurium (in the continued presence of 1 μM baicalein). Xenograft tissue was removed 15 hours after infection, extensively washed, and snap frozen in OCT compound.
# A severe vascular disturbance was also noted. These outcomes are all consistent with the clinical manifestations observed from S. typhimurium infection in humans.
# IL-8 secretion = IL-8 secretion by S. typhimurium infected T84 cell monolayers; assay type: cell-based, human; settings: S. typhimurium infected T84, baicalein 1 μM
# [3] = tested on: S. typhimurium-induced PMN transepithelial migration, T84 cells; test: Inhibition of S. typhimurium-induced PMN transepithelial migration across T84 monolayers; assay type: cell-based, human; settings: T84 pre-treated: baicalein 48 hours, caffeic acid 24 hours
# Source text: It was further examined if hepoxilin A3 acts in a gradient fashion to drive PMN migration from the basolateral to the apical epithelial surface. For these experiments, the physiologically directed (basolateral-to-apical) PMN transepithelial migration assay using cell culture inserts of inverted T84 monolayers has been used (McCormick et al., 1993; Parkos et al., 1992). Human PMN were isolated from normal volunteers, as described elsewhere (Parkos et al., 1992; Henson and Oades, 1975). […] PMN which completely traversed the monolayer were represented as the number of PMN (CE/ml in a total volume of 1 ml). Values were expressed as the mean and SD of an individual experiment done in triplicate repeated at least 3 times.
# Hepoxilin A3 is formed via the 12-lipoxygenase (LO) metabolism pathway of arachidonic acid. Therefore, the involvement of the 12-LO pathway in the ability of the enteric pathogen, S. typhimurium, to induce PMN transepithelial migration and elicit PEEC secretion was tested. […] For 12-LO inhibition, HBSS(+)-washed T84 cell monolayers were incubated in the presence baicalein [stock concentration at 1 mM in DMSO] for 48 hours at 37° C. Subsequently, S. typhimurium SL1344 was added to the apical surface of the T84 monolayers and after an incubation of 1 hour at 37° C., the cells were washed free of non-adherent bacteria and then processed for the PMN transmigration assay. […] For 5-LO inhibition, the T84 cells were washed with HBSS(+) and then were incubated for 24 hours in the presence of caffeic acid (stock concentration at 22 mM in DMSO). Both inhibitors were purchased form Biomol, Plymouth Meeting, Pa.
# In each instance, the T84 cell monolayers were incubated for […] in the presence of the inhibitor prior to the addition of S. typhimurium.
# 12-LO pathway = test: 12-S-HETE ELISA of lumenal fluid of S. typhimurium-infected xenografts; assay type: in vivo, human; settings: S. typhimurium-infected xenografts with baicalein; average of two lumens
# Protocol: as §1, with “Xenografts receiving the drug treatment were injected with 1 μM baicalein in a 100 μl volume 2 hours prior to infection with S. typhimurium (in the continued presence of 1 μM baicalein). Xenograft tissue was removed 15 hours after infection, extensively washed, and snap frozen in OCT compound.” left out
# It was further confirmed that treatment of the intestinal xenografts with baicalein inhibited the 12-LO pathway by measuring the amount of 12-S-HETE, a major 12-LO metabolite, released into the lumenal fluid. […] Finally, it was determined that there was no statistical difference in the amount IL-8 produced in the S. typhimurium-infected intestinal xenografts in the absence compared to the presence of baicalein treatment (200±53 pg/mg compared to 225±30 pg/mg, respectively, verses 52±11 pg/mg for uninfected control). […]
smiles,measurement,setting,value
O=c1cc(-c2ccccc2)oc2cc(O)c(O)c(O)c12 [baicalein],P. aeruginosa-induced PMN transepithelial migration with 12-LO inhibitor,[1],inhibited
same,histopathology / severity of intestinal inflammation,[2],only minimal alterations detectable; also recorded: significantly reduced; also recorded: significantly less severe
same,IL-8 secretion,IL-8 secretion,577 ± 35 pg/mL
same,S. typhimurium-induced PMN transepithelial migration with lipoxygenase inhibitor,[3],attenuated S. typhimurium-induced PMN transepithelial migration in a concentration-dependent fashion; also recorded: dose dependent decrease
same,12-S-HETE in lumenal fluid,12-LO pathway,21.5 ng/mL
